Test results taken from patent US20250152585A1, “PHARMACEUTICAL COMPOUND” (Duke Street Bio Limited, priority 2022, published 2025).
Read-outs that look alike come from different tables or passages of the source.

Tests used:
[1] = biological target: T1, full length N-terminally FLAG-tagged PARP1 (Homo sapiens, UniProt P09874); experiment: PARP1 probe displacement HTRF assay; conditions: for Selectivity: PARP1 over PARP2, ratio Kd (PARP2)/Kd (PARP1); for Kd: binned Kd
[2] = biological target: T2, N-terminally FLAG-tagged PARP2 (amino acids 1-583) (Homo sapiens, UniProt Q9UGN5); experiment: PARP2 probe displacement HTRF assay; type: binding; conditions: binned Kd
T2 construct: N-terminally FLAG-tagged PARP2 (amino acids 1-583)
Experimental: Data analysis was performed identical as for PARP1.

[3] = biological target: T1, full length N-terminally FLAG-tagged PARP1; experiment: PARP1 biochemical DELFIA assay (auto-PARylation); set-up: recombinant full length human N-terminally FLAG-tagged PARP1
[4] = read-out: PARP1 HTRF, PARP1 probe displacement HTRF
[5] = binned IC50, PARP1 biochemical DELFIA assay
[6] = PARP1 HTRF, PARP1 probe displacement HTRF

T2 sequence (Q9UGN5 whole entry, the tested form may be a part): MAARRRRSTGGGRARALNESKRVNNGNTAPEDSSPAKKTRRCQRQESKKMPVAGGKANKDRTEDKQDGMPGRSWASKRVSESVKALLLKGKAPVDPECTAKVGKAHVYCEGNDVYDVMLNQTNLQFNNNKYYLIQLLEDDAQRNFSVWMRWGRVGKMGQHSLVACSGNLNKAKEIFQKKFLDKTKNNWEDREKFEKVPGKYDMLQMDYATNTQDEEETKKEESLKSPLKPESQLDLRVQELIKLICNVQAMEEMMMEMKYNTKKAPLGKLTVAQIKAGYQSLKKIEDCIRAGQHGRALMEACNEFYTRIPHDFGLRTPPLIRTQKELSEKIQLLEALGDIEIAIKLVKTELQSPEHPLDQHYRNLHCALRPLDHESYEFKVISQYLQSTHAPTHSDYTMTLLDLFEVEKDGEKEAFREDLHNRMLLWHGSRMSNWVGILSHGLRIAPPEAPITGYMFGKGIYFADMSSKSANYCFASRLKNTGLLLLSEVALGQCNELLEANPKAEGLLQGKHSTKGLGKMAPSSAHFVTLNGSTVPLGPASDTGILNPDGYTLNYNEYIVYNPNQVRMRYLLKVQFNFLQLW
T1 sequence (P09874 whole entry, the tested form may be a part): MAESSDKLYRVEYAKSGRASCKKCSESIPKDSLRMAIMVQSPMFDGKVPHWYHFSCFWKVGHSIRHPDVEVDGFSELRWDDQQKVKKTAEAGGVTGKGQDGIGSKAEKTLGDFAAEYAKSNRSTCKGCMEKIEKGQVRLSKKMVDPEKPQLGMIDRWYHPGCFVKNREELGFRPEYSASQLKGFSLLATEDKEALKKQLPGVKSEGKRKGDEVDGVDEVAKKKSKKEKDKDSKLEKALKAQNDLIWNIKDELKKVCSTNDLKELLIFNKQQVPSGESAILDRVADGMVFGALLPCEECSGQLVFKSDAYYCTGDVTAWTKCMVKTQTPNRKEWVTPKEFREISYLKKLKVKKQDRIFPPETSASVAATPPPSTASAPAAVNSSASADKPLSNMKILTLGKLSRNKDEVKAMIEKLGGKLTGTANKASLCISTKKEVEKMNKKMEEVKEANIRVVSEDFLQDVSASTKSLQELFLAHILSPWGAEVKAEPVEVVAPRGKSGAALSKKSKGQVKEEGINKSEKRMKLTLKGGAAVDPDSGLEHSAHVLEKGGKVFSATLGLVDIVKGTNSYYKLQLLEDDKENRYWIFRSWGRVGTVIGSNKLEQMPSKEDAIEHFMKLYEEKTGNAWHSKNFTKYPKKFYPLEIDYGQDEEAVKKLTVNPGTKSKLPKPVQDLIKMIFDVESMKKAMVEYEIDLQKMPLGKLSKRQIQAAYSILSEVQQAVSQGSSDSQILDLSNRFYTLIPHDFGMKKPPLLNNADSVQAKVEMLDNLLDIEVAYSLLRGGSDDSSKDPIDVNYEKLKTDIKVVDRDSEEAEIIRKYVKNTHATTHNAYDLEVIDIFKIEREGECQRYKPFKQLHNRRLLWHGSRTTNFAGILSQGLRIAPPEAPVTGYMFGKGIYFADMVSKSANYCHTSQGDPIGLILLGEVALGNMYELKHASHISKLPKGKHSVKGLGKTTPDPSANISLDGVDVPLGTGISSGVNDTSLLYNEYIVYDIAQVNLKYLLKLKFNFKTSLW

Row | Structure (SMILES) | Kd [1, 4] [nM] | Kd ([2]; PARP2 probe displacement HTRF) [nM] | IC50 [3, 5] [nM] | Kd [1, 6] [nM] | Kd ([1]; read-out: PARP1 HTRF, probe displacement HTRF) [nM] | Kd ([2]; probe displacement HTRF) [nM] | IC50 ([3]; binned IC50, biochemical auto-PARylation assay) [nM] | Selectivity ([1]; probe displacement HTRF)
1 | CNC(=O)c1ccc(F)c(N2CCC(N3CCC(c4nc5ccccc5c(=O)[nH]4)C3)CC2)n1 (racemic) [Compound 105rac] | 100 to 1000 | 1000 to 10000 | 100 to 1000 | – | – | – | – | − (− indicates a value of less than 10)
2 | COCCNC(=O)c1ccc(N2CCC(N3CCC(c4nc5ccccc5c(=O)[nH]4)C3)CC2)cn1 (racemic) [Compound 124rac] | < 10 | 100 to 1000 | < 10 | – | – | – | – | +++ (+++ indicate a value of at least 100)
3 | CNC(=O)c1ccc(N2CCC(N3CCCC(c4ccc(C(C)C)c(=O)[nH]4)C3)CC2)cn1 (racemic) [Compound 132rac] | 10 to 100 | > 10000 | 10 to 100 | – | – | – | – | +++ (+++ indicate a value of at least 100)
4 | CCc1nc(C(=O)NC)ccc1N1CCC(N2CCC(c3ccc(CC)c(=O)[nH]3)C2)CC1 (racemic) [Compound 134rac] | < 10 | > 10000 | < 10 | – | – | – | – | +++ (+++ indicate a value of at least 100)
5 | CNC(=O)c1ccc(N2CCC(N3CCC(c4ccc(C(C)C)c(=O)[nH]4)C3)CC2)cn1 (racemic) [Compound 142rac] | < 10 | 1000 to 10000 | < 10 | – | – | – | – | +++ (+++ indicate a value of at least 100)
6 | CNC(=O)c1ccc(N2CCC(N3CCC(c4nc5c(C)nn(C)c5c(=O)[nH]4)C3)CC2)cn1 (racemic) [Compound 143rac] | < 10 | 1000 to 10000 | 10 to 100 | – | – | – | – | +++ (+++ indicate a value of at least 100)
7 | CCc1ccc(C2CCN(C3CCN(c4ccc(C(=O)NCC(F)(F)F)nc4)CC3)C2)[nH]c1=O (racemic) [Compound 153rac] | < 10 | 100 to 1000 | < 10 | – | – | – | – | ++ (++ indicates a value of 50 to less than 100)
8 | CNC(=O)c1ccc(N2CCC(N3CCC(c4cc5ccc(F)cc5c(=O)[nH]4)C3)CC2)cn1 (racemic) [Compound 154rac, 5-(4-(3-(7-fluoro-1-oxo-1,2-dihydroisoquinolin-3-yl)pyrrolidin-1-yl)piperidin-1-yl)-N-methylpicolinamide] | – | 10 to 100 | < 10 | < 10 | – | – | – | + (+ indicates a value of 10 to less than 50)
9 | CNC(=O)c1ccc(N2CCC(N3CCCC(c4nc5ccccc5c(=O)[nH]4)C3)CC2)c(C(F)F)n1 (racemic) [Compound 156rac] | 10 to 100 | > 10000 | 10 to 100 | – | – | – | – | ++ (++ indicates a value of 50 to less than 100)
10 | CCc1ccc(C2CCN(C3CCN(c4ccc(C(N)=O)nc4)CC3)C2)[nH]c1=O (racemic) [Compound 166rac] | < 10 | 1000 to 10000 | < 10 | – | – | – | – | +++ (+++ indicate a value of at least 100)
11 | CCNC(=O)c1ccc(N2CCC(N3CCC(c4ccc(CC)c(=O)[nH]4)C3)CC2)cn1 (racemic) [Compound 171rac] | < 10 | 100 to 1000 | < 10 | – | – | – | – | +++ (+++ indicate a value of at least 100)
12 | CNC(=O)c1ccc(N2CCC(N3CCCC(c4nc5onc(C(F)(F)F)c5c(=O)[nH]4)C3)CC2)cn1 (racemic) [Compound 191rac] | 100 to 1000 | > 10000 | 100 to 1000 | – | – | – | – | + (+ indicates a value of 10 to less than 50)
13 | CNC(=O)c1ccc(N2CCC(N3CCC(c4cc5nccc(N)c5c(=O)[nH]4)C3)CC2)cn1 (racemic) [Compound 200rac] | 10 to 100 | > 10000 | 10 to 100 | – | – | – | – | +++ (+++ indicate a value of at least 100)
14 | CNC(=O)c1ccc(N2CCC(N3CCC(c4cc5cnccc5c(=O)[nH]4)C3)CC2)cn1 (racemic) [Compound 204rac] | < 10 | > 10000 | < 10 | – | – | – | – | +++ (+++ indicate a value of at least 100)
15 | CNC(=O)c1ccc(N2CCC(N3CCC(c4nc5c(c(=O)[nH]4)NCCN5)C3)CC2)cn1 (racemic) [Compound 226rac] | – | – | – | – | 10 to 100 | > 10000 | 10 to 100 | ++ (++ indicates a value of 50 to less than 100)

Continued, in another order:

Row | Kd [1, 4] [nM] | Kd ([2]; PARP2 probe displacement HTRF) [nM] | IC50 [3, 5] [nM] | Kd [1, 6] [nM] | Kd ([1]; read-out: PARP1 HTRF, probe displacement HTRF) [nM] | Kd ([2]; probe displacement HTRF) [nM] | IC50 ([3]; binned IC50, biochemical auto-PARylation assay) [nM] | Structure (SMILES) | Selectivity ([1]; probe displacement HTRF)
16 | < 10 | 1000 to 10000 | < 10 | – | – | – | – | CNC(=O)c1ccc(N2CCC(N3CCCC(c4nc5ccccc5c(=O)[nH]4)C3)CC2)c(F)n1 (racemic) [Compound 103rac] | +++ (+++ indicate a value of at least 100)
17 | < 10 | 1000 to 10000 | < 10 | – | – | – | – | CNC(=O)c1ccc(N2CCC(N3CCC(c4nc5ccccc5c(=O)[nH]4)C3)CC2)c(Cl)n1 (racemic) [Compound 104rac] | +++ (+++ indicate a value of at least 100)
18 | 10 to 100 | > 10000 | 10 to 100 | – | – | – | – | CNC(=O)c1ccc(N2CCC(N3CCC(c4cnc(C)c(=O)[nH]4)C3)CC2)cn1 (racemic) [Compound 127rac] | +++ (+++ indicate a value of at least 100)
19 | < 10 | 10 to 100 | < 10 | – | – | – | – | CNC(=O)c1ccc(N2CCC(N3CCC(c4cc5cccc(C(F)(F)F)c5c(=O)[nH]4)C3)CC2)cn1 (racemic) [Compound 135rac] | + (+ indicates a value of 10 to less than 50)
20 | – | 10 to 100 | < 10 | < 10 | – | – | – | CNC(=O)c1ccc(N2CCC(N3CCC(c4cc5cccc(F)c5c(=O)[nH]4)C3)CC2)cn1 (racemic) [Compound 136rac, 5-{4-[3-(8-fluoro-1-oxo-2H-isoquinolin-3-yl)pyrrolidin-1-yl]piperidin-1-yl}-N-methylpyridine-2-carboxamide] | +++ (+++ indicate a value of at least 100)
21 | 10 to 100 | 1000 to 10000 | 10 to 100 | – | – | – | – | CNC(=O)c1ccc(N2CCC(N3CCCC(c4nc5ccccc5c(=O)[nH]4)C3)CC2)c(C(F)(F)F)n1 (racemic) [Compound 138rac] | ++ (++ indicates a value of 50 to less than 100)
22 | < 10 | 1000 to 10000 | < 10 | – | – | – | – | CNC(=O)c1ccc(N2CCC(N3CCC(c4ccc(C5CC5)c(=O)[nH]4)C3)CC2)cn1 (racemic) [Compound 141rac] | +++ (+++ indicate a value of at least 100)
23 | < 10 | 1000 to 10000 | < 10 | – | – | – | – | CCc1ccc(C2CCN(C3CCN(c4ccc(C(=O)NCCOC)nc4)CC3)C2)[nH]c1=O (racemic) [Compound 160rac] | +++ (+++ indicate a value of at least 100)
24 | < 10 | 100 to 1000 | < 10 | – | – | – | – | CNC(=O)c1ccc(N2CCC(N3CCC(c4nc5c(C)cn(C)c5c(=O)[nH]4)C3)CC2)cn1 (racemic) [Compound 163rac] | +++ (+++ indicate a value of at least 100)
25 | < 10 | 100 to 1000 | < 10 | – | – | – | – | CNC(=O)c1cc(C)c(N2CCC(N3CCC(c4cc5ccccc5c(=O)[nH]4)C3)CC2)cn1 (racemic) [Compound 195rac] | +++ (+++ indicate a value of at least 100)
26 | < 10 | > 10000 | < 10 | – | – | – | – | CNC(=O)c1ccc(N2CCC(N3CCC(c4cc5cccnc5c(=O)[nH]4)C3)CC2)cn1 (racemic) [Compound 203rac] | +++ (+++ indicate a value of at least 100)
27 | < 10 | 100 to 1000 | < 10 | – | – | – | – | CNC(=O)c1cc(C)c(N2CCC(N3CCC(c4cc5ccncc5c(=O)[nH]4)C3)CC2)c(C)n1 (racemic) [Compound 211rac] | +++ (+++ indicate a value of at least 100)
28 | 10 to 100 | 100 to 1000 | 10 to 100 | – | – | – | – | CNC(=O)c1ncc(N2CCC(N3CCC(c4cc5cccc(F)c5c(=O)[nH]4)C3)CC2)cn1 (racemic) [Compound 215rac] | − (− indicates a value of less than 10)
